Results from US20240092790A1, “DIHYDROFUROPYRIDINE DERIVATIVES AS RHO- KINASE INHIBITORS” (CHIESI FARMACEUTICI S.P.A., priority 2020, published 2024).

Key:
Format in all cases: biochemical
ROCK2 = ROCK2 (Homo sapiens, UniProt O75116); experiment: In vitro inhibitory activity assay ROCK2 (ADP-Glo); details: ATP 200 μM, Cheng-Prusoff; read-out: ROCK2 (Ki, range of activity)
Protocol: (§1) In Vitro Inhibitory Activity Assay Description ROCK1 and ROCK2
(§2) The effectiveness of compounds of the present invention to inhibit Rho kinase activity can be determined in a 10 μl assay containing 40 mM Tris pH7.5, 20 mM MgCl2 0.1 mg/mL BSA, 50 μM DTT and 2.5 μM peptide substrate (Myelin Basic Protein) using an ADP-Glo kit (Promega). Compounds were dissolved in DMSO such that the final concentration of DMSO was 1% in the assay. All reactions/incubations are performed at 25° C. Compound (2 ul) and either Rho kinase 1 or 2 (4 μl) were mixed and incubated for 30 mins. Reactions were initiated by addition of ATP (4 μl) such that the final concentration of ATP in the assay was 200 μM. After a 1 hour incubation 10 μl of ADP-Glo Reagent was added and after a further 1 hour incubation 20 ul of Kinase Detection Buffer was added and the mixture incubated for a further 45 minutes. The luminescent signal was measured on a luminometer. […] Compounds were tested in dose-response format and the inhibition of kinase activity was calculated at each concentration of compound. To determine the IC50 (concentration of compound required to inhibit 50% of the enzyme activity) data were fit to a plot of % inhibition vs Log 10 compound concentration using a sigmoidal fit with a variable slope and fixing the maximum to 100% and the minimum to 0%. To determine the Ki values the Cheng-Prusoff equation was utilized (Ki=IC50/(1+[S]/Km).

PKA = PKA (Homo sapiens, UniProt P17612); experiment: In vitro inhibitory activity assay for PKA (ADP-Glo), reported as selectivity ratio vs ROCK2; details: Ki value for PKA divided by Ki value of ROCK2
Protocol: In Vitro Inhibitory Activity Assay Description for PKA
The effectiveness of compounds of the present invention to inhibit PKA activity can be determined in a 10 μl assay containing 40 mM Tris pH7.5, 20 mM MgCl2 0.1 mg/ml BSA, 50 μM DTT and 260 μM peptide substrate (kemptide) using an ADP-Glo kit (Promega). Compounds were dissolved in DMSO such that the final concentration of DMSO was 1% in the assay. All reactions/incubations are performed at 25° C. Compound and PKA enzyme (6 μl) were mixed and incubated for 30 mins. Reactions were initiated by addition of ATP (4 μl) such that the final concentration of ATP in the assay was 10 μM. After a 30 minute incubation 10p of ADP-Glo Reagent was added and after a further 1 hour incubation 20 μl of Kinase Detection Buffer was added and the mixture incubated for a further 45 minutes. The luminescent signal was measured on a luminometer. […] Compounds were tested in dose-response format and the inhibition of kinase activity was calculated at each concentration of compound. To determine the IC50 (concentration of compound required to inhibit 50% of the enzyme activity) data were fit to a plot of % inhibition vs Log10 compound concentration using a sigmoidal fit with a variable slope and fixing the maximum to 100% and the minimum to 0%. To determine the Ki values the Cheng-Prusoff equation was utilized (Ki=IC50/(1+[S]/Km).
In vitro inhibitory activities for PKA were reported as selectivity ratio vs. ROCK-2.

ROCK1 = ROCK1 (Homo sapiens, UniProt Q13464); experiment: In vitro inhibitory activity assay ROCK1 (ADP-Glo); details: ATP 200 μM, Cheng-Prusoff; read-out: ROCK 1 (Ki, range of activity)
ROCK1, sequence (Q13464 whole entry): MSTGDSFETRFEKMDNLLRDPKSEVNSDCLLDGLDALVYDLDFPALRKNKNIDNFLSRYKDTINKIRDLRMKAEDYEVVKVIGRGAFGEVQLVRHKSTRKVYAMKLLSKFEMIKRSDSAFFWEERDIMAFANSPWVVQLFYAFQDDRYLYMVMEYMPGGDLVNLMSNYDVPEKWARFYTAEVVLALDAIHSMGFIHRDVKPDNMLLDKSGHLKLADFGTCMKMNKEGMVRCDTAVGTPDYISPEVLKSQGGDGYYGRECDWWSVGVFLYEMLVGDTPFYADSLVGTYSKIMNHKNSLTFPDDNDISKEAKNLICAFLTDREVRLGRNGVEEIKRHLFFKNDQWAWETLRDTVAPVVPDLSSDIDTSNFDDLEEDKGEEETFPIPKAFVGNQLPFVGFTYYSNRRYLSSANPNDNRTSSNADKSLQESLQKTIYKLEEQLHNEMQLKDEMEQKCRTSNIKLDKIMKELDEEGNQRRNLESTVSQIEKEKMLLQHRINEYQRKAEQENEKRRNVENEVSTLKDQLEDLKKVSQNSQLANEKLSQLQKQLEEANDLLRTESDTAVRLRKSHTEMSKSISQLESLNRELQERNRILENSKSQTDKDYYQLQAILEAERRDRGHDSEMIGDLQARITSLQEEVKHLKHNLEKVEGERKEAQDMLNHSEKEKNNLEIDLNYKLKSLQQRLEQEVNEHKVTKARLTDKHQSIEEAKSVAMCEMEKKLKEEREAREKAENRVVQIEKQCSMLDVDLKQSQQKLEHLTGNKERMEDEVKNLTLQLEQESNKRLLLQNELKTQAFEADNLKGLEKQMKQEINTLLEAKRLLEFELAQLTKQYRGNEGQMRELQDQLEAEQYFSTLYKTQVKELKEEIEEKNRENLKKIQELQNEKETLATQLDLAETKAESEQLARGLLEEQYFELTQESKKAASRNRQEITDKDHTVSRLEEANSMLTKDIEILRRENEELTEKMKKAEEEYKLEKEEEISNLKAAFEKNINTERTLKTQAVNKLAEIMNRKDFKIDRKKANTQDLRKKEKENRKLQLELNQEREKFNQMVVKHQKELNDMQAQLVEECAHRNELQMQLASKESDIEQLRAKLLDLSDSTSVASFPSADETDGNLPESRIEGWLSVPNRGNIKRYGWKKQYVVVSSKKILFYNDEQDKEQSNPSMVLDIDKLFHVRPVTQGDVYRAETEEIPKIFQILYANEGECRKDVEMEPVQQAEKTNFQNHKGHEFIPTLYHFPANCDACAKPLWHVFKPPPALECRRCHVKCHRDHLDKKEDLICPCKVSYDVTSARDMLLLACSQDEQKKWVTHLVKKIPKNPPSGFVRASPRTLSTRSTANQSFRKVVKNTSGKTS
Protocol: as §1, §2

ROCK2, sequence (O75116 whole entry): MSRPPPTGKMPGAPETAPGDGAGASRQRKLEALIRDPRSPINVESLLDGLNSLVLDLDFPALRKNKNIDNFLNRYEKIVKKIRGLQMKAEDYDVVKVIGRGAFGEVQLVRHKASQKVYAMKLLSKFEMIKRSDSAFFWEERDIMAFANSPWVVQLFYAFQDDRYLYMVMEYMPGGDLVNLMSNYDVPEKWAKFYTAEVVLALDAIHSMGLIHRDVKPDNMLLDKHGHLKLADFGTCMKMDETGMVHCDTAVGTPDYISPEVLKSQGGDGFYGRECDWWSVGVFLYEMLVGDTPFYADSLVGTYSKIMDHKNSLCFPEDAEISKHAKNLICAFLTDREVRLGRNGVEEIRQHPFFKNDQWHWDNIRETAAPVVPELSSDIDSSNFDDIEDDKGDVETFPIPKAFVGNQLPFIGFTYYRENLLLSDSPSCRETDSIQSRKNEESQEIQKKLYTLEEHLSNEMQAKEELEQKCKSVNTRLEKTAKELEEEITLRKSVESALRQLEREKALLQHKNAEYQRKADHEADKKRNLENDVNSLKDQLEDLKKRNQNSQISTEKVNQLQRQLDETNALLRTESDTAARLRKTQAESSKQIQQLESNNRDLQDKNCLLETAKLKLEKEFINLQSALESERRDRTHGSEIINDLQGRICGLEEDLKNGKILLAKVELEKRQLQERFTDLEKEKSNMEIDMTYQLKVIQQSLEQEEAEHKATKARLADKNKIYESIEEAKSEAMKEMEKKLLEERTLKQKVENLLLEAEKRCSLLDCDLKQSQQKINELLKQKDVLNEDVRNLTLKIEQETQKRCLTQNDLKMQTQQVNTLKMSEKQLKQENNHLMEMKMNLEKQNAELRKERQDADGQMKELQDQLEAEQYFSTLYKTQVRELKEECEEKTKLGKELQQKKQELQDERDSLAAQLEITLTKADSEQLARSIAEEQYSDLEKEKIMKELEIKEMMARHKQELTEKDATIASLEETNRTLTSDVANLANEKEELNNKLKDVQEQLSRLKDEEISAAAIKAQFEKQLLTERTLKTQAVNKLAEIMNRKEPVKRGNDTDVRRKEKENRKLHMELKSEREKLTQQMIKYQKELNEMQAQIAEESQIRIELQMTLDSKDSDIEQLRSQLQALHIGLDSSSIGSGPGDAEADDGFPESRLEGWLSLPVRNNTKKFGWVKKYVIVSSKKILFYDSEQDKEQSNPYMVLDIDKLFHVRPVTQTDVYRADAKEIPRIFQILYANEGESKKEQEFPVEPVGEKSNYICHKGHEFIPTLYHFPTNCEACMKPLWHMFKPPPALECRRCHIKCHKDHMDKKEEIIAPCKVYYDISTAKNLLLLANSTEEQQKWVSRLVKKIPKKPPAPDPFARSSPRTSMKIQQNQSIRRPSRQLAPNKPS

Row | Ki (ROCK2) | Ratio (PKA/ROCK2) (PKA) | Ki (ROCK1) | Compound
1 | ≤ 3 nM | *** (ratio≥10) | ≤ 3 nM | CC(C)(C)N1CC(CNC(=O)c2cccc(CNc3ncc(-c4ccnc(N)n4)c4c3CCO4)c2)CC1=O (single isomer, unassigned) [Example 32, 3-(((7-(2-Aminopyrimidin-4-yl)-2,3-dihydrofuro[3,2-c]pyridin-4-yl)amino)methyl)-N-((1-(tert-butyl)-5-oxopyrrolidin-3-yl)methyl)benzamide]
2 | ≤ 3 nM | *** (ratio≥10) | ≤ 3 nM | CC(C)(C)N1CC(CNC(=O)c2cccc(CNc3ncc(-c4ccnc(N)n4)c4c3CCO4)c2)CC1=O (single isomer, unassigned) [Example 33, 3-(((7-(2-Aminopyrimidin-4-yl)-2,3-dihydrofuro[3,2-c]pyridin-4-yl)amino)methyl)-N-((1-(tert-butyl)-5-oxopyrrolidin-3-yl)methyl)benzamide]
3 | ≤ 3 nM | *** (ratio≥10) | ≤ 3 nM | CN1CCOC(CNC(=O)c2cccc(CNc3ncc(-c4ccnc(N)n4)c4c3CCO4)c2)C1 (single isomer, unassigned) [Example 34, 3-(((7-(2-Aminopyrimidin-4-yl)-2,3-dihydrofuro[3,2-c]pyridin-4-yl)amino)methyl)-N-((4-methylmorpholin-2-yl)methyl)benzamide]
4 | ≤ 3 nM | *** (ratio≥10) | ≤ 3 nM | CN1CCOC(CNC(=O)c2cccc(CNc3ncc(-c4ccnc(N)n4)c4c3CCO4)c2)C1 (single isomer, unassigned) [Example 35, 3-(((7-(2-Aminopyrimidin-4-yl)-2,3-dihydrofuro[3,2-c]pyridin-4-yl)amino)methyl)-N-((4-methylmorpholin-2-yl)methyl)benzamide]
5 | ≤ 3 nM | *** (ratio≥10) | ≤ 3 nM | Nc1nccc(-c2cnc(NCc3cccc(C(=O)NC4CC4F)c3)c3c2OCC3)n1 (single isomer, unassigned) [Example 45, Trans 3-(((7-(2-Aminopyrimidin-4-yl)-2,3-dihydrofuro[3,2-c]pyridin-4-yl)amino)methyl)-N-(2-fluorocyclopropyl)benzamide]
6 | ≤ 3 nM | *** (ratio≥10) | ≤ 3 nM | Nc1nccc(-c2cnc(NCc3cccc(C(=O)NC4CC4F)c3)c3c2OCC3)n1 (single isomer, unassigned) [Example 46, Trans 3-(((7-(2-Aminopyrimidin-4-yl)-2,3-dihydrofuro[3,2-c]pyridin-4-yl)amino)methyl)-N-(2-fluorocyclopropyl)benzamide]
7 | ≤ 3 nM | ** (5≤ratio<10) | ≤ 3 nM | Nc1nccc(-c2cnc(NCc3cccc(C(=O)NC4CCC4)c3)c3c2OCC3)n1 [Example 1, 3-(((7-(2-Aminopyrimidin-4-yl)-2,3-dihydrofuro[3,2-c]pyridin-4-yl)amino)methyl)-N-cyclobutylbenzamide]
8 | ≤ 3 nM | *** (ratio≥10) | ≤ 3 nM | Nc1nccc(-c2cnc(NCc3cccc(C(=O)NCC4CCOCC4)c3)c3c2OCC3)n1 [Example 2, 3-(((7-(2-Aminopyrimidin-4-yl)-2,3-dihydrofuro[3,2-c]pyridin-4-yl)amino)methyl)-N-((tetrahydro-2H-pyran-4-yl)methyl)benzamide]
9 | ≤ 3 nM | *** (ratio≥10) | ≤ 3 nM | CC1(C)CC(NC(=O)c2cccc(CNc3ncc(-c4ccnc(N)n4)c4c3CCO4)c2)CO1 (stereo not drawn) [Example 3, 3-(((7-(2-Aminopyrimidin-4-yl)-2,3-dihydrofuro[3,2-c]pyridin-4-yl)amino)methyl)-N-(5,5-dimethyltetrahydrofuran-3-yl)benzamide]
10 | ≤ 3 nM | *** (ratio≥10) | ≤ 3 nM | Nc1nccc(-c2cnc(NCc3cccc(C(=O)NC4CC4)c3)c3c2OCC3)n1 [Example 4, 3-(((7-(2-Aminopyrimidin-4-yl)-2,3-dihydrofuro[3,2-c]pyridin-4-yl)amino)methyl)-N-cyclopropylbenzamide]
11 | ≤ 3 nM | *** (ratio≥10) | ≤ 3 nM | Nc1nccc(-c2cnc(NCc3cccc(C(=O)NCCN4CCCCC4)c3)c3c2OCC3)n1 [Example 5, 3-(((7-(2-Aminopyrimidin-4-yl)-2,3-dihydrofuro[3,2-c]pyridin-4-yl)amino)methyl)-N-(2-(piperidin-1-yl)ethyl)benzamide]
12 | ≤ 3 nM | *** (ratio≥10) | ≤ 3 nM | [2H]C([2H])([2H])OCCCNC(=O)c1cccc(CNc2ncc(-c3ccnc(N)n3)c3c2CCO3)c1 [Example 6, 3-(((7-(2-aminopyrimidin-4-yl)-2,3-dihydrofuro[3,2-c]pyridin-4-yl)amino)methyl)-N-(3-(methoxy-d3)propyl)benzamide]
13 | ≤ 3 nM | *** (ratio≥10) | ≤ 3 nM | Nc1nccc(-c2cnc(NCc3cccc(C(=O)NC4CCOCC4)c3)c3c2OCC3)n1 [Example 7, 3-(((7-(2-Aminopyrimidin-4-yl)-2,3-dihydrofuro[3,2-c]pyridin-4-yl)amino)methyl)-N-(tetrahydro-2H-pyran-4-yl)benzamide]
14 | ≤ 3 nM | *** (ratio≥10) | ≤ 3 nM | COCCCNC(=O)c1cccc(CNc2ncc(-c3ccnc(N)n3)c3c2CCO3)c1 [Example 8, 3-(((7-(2-Aminopyrimidin-4-yl)-2,3-dihydrofuro[3,2-c]pyridin-4-yl)amino)methyl)-N-(3-methoxypropyl)benzamide]
15 | ≤ 3 nM | *** (ratio≥10) | ≤ 3 nM | COCCNC(=O)c1cccc(CNc2ncc(-c3ccnc(N)n3)c3c2CCO3)c1 [Example 9, 3-(((7-(2-Aminopyrimidin-4-yl)-2,3-dihydrofuro[3,2-c]pyridin-4-yl)amino)methyl)-N-(2-methoxyethyl)benzamide]
16 | ≤ 3 nM | ** (5≤ratio<10) | ≤ 3 nM | Nc1nccc(-c2cnc(NCc3cccc(C(=O)NC4CC(F)(F)C4)c3)c3c2OCC3)n1 [Example 10, 3-(((7-(2-Aminopyrimidin-4-yl)-2,3-dihydrofuro[3,2-c]pyridin-4-yl)amino)methyl)-N-(3,3-difluorocyclobutyl)benzamide]
17 | 3 to 30 nM | *** (ratio≥10) | 3 to 30 nM | CC(C)NC(=O)c1cccc(CNc2ncc(-c3ccnc(N)n3)c3c2CCO3)c1 [Example 11, 3-(((7-(2-Aminopyrimidin-4-yl)-2,3-dihydrofuro[3,2-c]pyridin-4-yl)amino)methyl)-N-isopropylbenzamide]
18 | ≤ 3 nM | *** (ratio≥10) | 3 to 30 nM | Nc1nccc(-c2cnc(NCc3cccc(C(=O)NCC(F)(F)F)c3)c3c2OCC3)n1 [Example 12, 3-(((7-(2-Aminopyrimidin-4-yl)-2,3-dihydrofuro[3,2-c]pyridin-4-yl)amino)methyl)-N-(2,2,2-trifluoroethyl)benzamide]
19 | ≤ 3 nM | *** (ratio≥10) | ≤ 3 nM | CN1CCC(NC(=O)c2cccc(CNc3ncc(-c4ccnc(N)n4)c4c3CCO4)c2)CC1 [Example 13, 3-(((7-(2-Aminopyrimidin-4-yl)-2,3-dihydrofuro[3,2-c]pyridin-4-yl)amino)methyl)-N-(1-methylpiperidin-4-yl)benzamide]
20 | ≤ 3 nM | *** (ratio≥10) | ≤ 3 nM | Nc1nccc(-c2cnc(NCc3cccc(C(=O)NCCCOC(F)F)c3)c3c2OCC3)n1 [Example 14, 3-(((7-(2-Aminopyrimidin-4-yl)-2,3-dihydrofuro[3,2-c]pyridin-4-yl)amino)methyl)-N-(3-(difluoromethoxy)propyl)benzamide]
21 | ≤ 3 nM | *** (ratio≥10) | ≤ 3 nM | CC(C)OCCCNC(=O)c1cccc(CNc2ncc(-c3ccnc(N)n3)c3c2CCO3)c1 [Example 15, 3-(((7-(2-Aminopyrimidin-4-yl)-2,3-dihydrofuro[3,2-c]pyridin-4-yl)amino)methyl)-N-(3-isopropoxypropyl)benzamide]
